Results taken from patent US12331312B2, “Deterministic culturing of single cells” (Purdue Research Foundation, priority 2020, dated 2025).

Tested on: MCF7 tumors
Assay: Paclitaxel treatment of single-cell-derived MCF7 tumors on collagen islands; apoptosis counted by Hoechst nuclear morphology
Assay type: cell-based
Description: Hoechst staining was used to visualize cells in the tumor using fluorescence microscopy (FIG. 4). Specifically, cells were washed in PBS and fixed in 4% paraformaldehyde before staining with 1:1000 PBS diluted solution of 20 mM Hoechst 33342 (Thermo Fischer Scientific, Waltham, MA) for 10 minutes. After washing once with PBS, tumors were imaged with a ZEISS LSM 800 confocal microscope with an excitation laser of 401 nm wavelength and with 10× magnification lens (EC Plan-Neofluar® 10×/0.30 M27). Bright-field and fluorescence images were also obtained using NIKON ECLIPSE® 80i upright fluorescence microscope, which were used to analyze the morphology of the tumors with ImageJ. […]
For each tumor, dead and live nuclei at every alternate plane of the z-stack were manually counted using Fiji cell counting software. […]
Since each island comprises a relatively small amount of collagen (e.g. as opposed to an entire well of a 96-well plate), excess dye that inadvertently diffuses into the collagen can be washed easily to reduce any background fluorescence signal. Live and dead cells (the latter indicated by smaller or fragmented nuclei with intense staining due to DNA condensation) from individual planes of z-stack confocal images of each tumor were manually counted according to a procedure described by Crowley et al. (see, e.g., Crowley et al., Cold Spring Harb. Protoc. pdb.prot087205 2016). […]

## CC(=O)O[C@H]1C(=O)[C@@]2(C)[C@H]([C@H](OC(=O)c3ccccc3)[C@]3(O)C[C@H](OC(=O)[C@H](O)[C@@H](NC(=O)c4ccccc4)c4ccccc4)C(C)=C1C3(C)C)[C@]1(OC(C)=O)CO[C@@H]1C[C@@H]2O [Paclitaxel]
13-day old MCF7 tumors, Paclitaxel 5 nM, 20 nM and 100 nM for 24 hours, Hoechst 33342 nuclear morphology
  average cell death (percentage of apoptotic cells): increased with drug concentration
Each drug concentration (5, 20, 100 nM), 24 hours
  variation in the response of individual tumors: significant variation in the response of individual tumors for each drug concentration
